Source: patent US11918550B2, “Sensitization of cancer cells to differentiation therapy with mitochondrial uncoupler niclosamide ethanolamine” (The Board of Trustees of the Leland Stanford Junior …, priority 2020, dated 2024)

How the values were obtained:
[1] = Plasma and tissue NEN levels under dietary NEN supplementation (LC/MS); format: in vivo; details: mice, diet that contains 2000 ppm NEN
Experimental: Metabolic analysis. For the metabolomics and isotope tracing analysis in vitro, cells were washed with cold PBS, lysed in 80% Ultra LC-MS acetonitrile on ice for 15 minutes, centrifuged at 20,000 g for 10 minutes at 4° C., and supernatant was subjected to mass spectrometry analysis. For the metabolomics analysis in vivo, 10-20 mg tissue were cut off on ice, rinsed if necessary to remove blood, and place in a 2 ml round-bottom cryovial. The tissues were homogenized by 3 times 10 s on/off bursts homogenization in 1 ml 80% methanol on dry ice. Transfer the homogenate to an Eppendorf tube and keep on liquid nitrogen while processing the remaining samples. Incubated all the samples in −80° C. for 30 minutes. After incubation, vortexed the samples for 5 seconds. Then centrifuged the samples at 20,000 g for 10 minutes at 4° C., and supernatant was subjected to mass spectrometry analysis. Resuspend the remaining cellular pellet in 100 ul protein lysis buffer and determine the protein concentration. Then calculate the total protein content per sample.
Liquid chromatography was performed using an Agilent 1290 Infinity LC system (Agilent, Santa Clara, US) coupled to a Q-TOF 6545 mass spectrometer (Agilent, Santa Clara, US). […]
Mouse orthotopic neuroblastoma model. […] Tumor formation was monitored by non-invasive ultrasound measurements, and the animals euthanized when the tumor volume exceeded 1,000 mm^3.

[2] = test system: HIF target genes such as pdk1, pdk3, pgk1 and Idha; assay: RT-PCR of HIF target genes; format: cell-based; details: SK-N-BE(2), 2 or 4 μM NEN, normoxia or hypoxia
Experimental: RNA isolation, reverse transcription, and real-time PCR. The procedure was performed as described before. Briefly, total RNA was isolated from 60 mm tissue culture plates according to the TRIzol Reagent (Invitrogen, 15596026) protocol. 3 μg of total RNA was used in the reverse transcription reaction using the iScript cDNA synthesis kit (Bio-Rad). Quantitative PCR amplification was performed on the Prism 7900 Sequence Detection System (Applied Biosystems) using Taqman Gene Expression Assays (Applied Biosystems). Gene expression level were normalized to 18S rRNA.

SK-N-BE(2) cells = assay: Methylated DNA Immunoprecipitation (MeDIP)-qRT-PCR; format: cell-based; details: 1 μM NEN 5 h
Experimental: Methylated DNA Immunoprecipitation. 5×10^5 SK-N-BE(2) cells were plated in 60 mm dishes. […] After treatment, the cells were collected for DNA extraction as described above. 10 μg genomic DNA was sheared using a Bioruptor® Plus sonicator (Diagenode, UCD-300) to 550 bp fragments according to the instrument manual. Agarose electrophoresis was employed to examine the sizes of DNA fragments. The sonicated DNA samples were denatured at 95° C. for 15 minutes, then kept on ice immediately for at least 5 minutes. 200 ng denatured DNA was transferred to a new tube for input control and diluted with EDTA-free TE buffer to 100 μl total volume. For each pulldown reaction, transfer 600 ng of denatured DNA solution to new tubes and add EDTA-free TE buffer to 300 μl total volume. Add 2 μl antibody (5-mc or IgG control) and 20 μl prewashed Dynabeads™ Protein A (Invitrogen™, 10001 D) into the tubes and incubate the samples at 4° C. for 60 minutes with rotation. After incubation, place the tubes in magnetic rack for 30 s to allow the beads separate from solution. Remove the solution carefully without disturbing the beads. Wash the beads for 4 times by IP buffer (0.01% SDS, 1% Triton X-100, 2 mM EDTA, 20 mM Tris-HCl pH 8.1, 150 mM NaCl). DNA was eluted by resuspending the beads in 100 μl of digestion buffer (10 mM Tris pH 8.0, 1 mM EDTA, 1% SDS, 1 μg/μl proteinase K) and incubated for 6 hr at 65° C. […]

Structure (SMILES): O=C(Nc1ccc([N+](=O)[O-])cc1Cl)c1cc(Cl)ccc1O [NEN, 5-chloro-N-(2-chloro-4-nitrophenyl)-2-hydroxybenzamide compound with 2-aminoethanol (1:1)]
- NEN accumulation in plasma [1]: 1 to 3 µM
- expression of HIF target genes such as pdk1, pdk3, pgk1 and Idha [2]: reduced
- methylation on promoter region of genes in RAR signaling (SK-N-BE(2) cells): reduced
